These results are taken from patent publication US8846367B2, “Coryneform bacterium transformant and process for producing phenol using the same” (Green Phenol Development Co., Ltd., priority 2010, dated 2014).

Assay [1] concerns Corynebacterium glutamicum R. The settings on record: aerobic culture, A liquid medium, 33° C. As to the method:
(§1) A growth inhibition test in aerobic culture was performed to examine the influence of phenol on Corynebacterium glutamicum, Escherichia coli, and Pseudomonas putida. Pseudomonas putida S12, which was used for the test, is reported to be a solvent-resistant strain. In the report, disclosed is an unparalleled technology using the strain as a host in phenol production.
Corynebacterium glutamicum R was applied to A agar medium (2 g of (NH2)2CO, 7 g of (NH4)2SO4, 0.5 g of KH2PO4, 0.5 g of K2HPO4, 0.5 g of MgSO4.7H2O, 1 mL of 0.06% (w/v) Fe2SO4.7H2O+0.042% (w/v) MnSO4.2H2O, 1 mL of 0.02% (w/v) biotin solution, 2 mL of 0.01% (w/v) thiamin solution, 2 g of yeast extract, 7 g of vitamin assay casamino acid, 40 g of glucose, and 15 g of agar were suspended in 1 L of distilled water) and was left stand in the dark at 33° C. for 15 hours.
An inoculation loop of the Corynebacterium glutamicum R grown on a plate as above was inoculated into a test tube containing 10 mL of A liquid medium (2 g of (NH2)2CO, 7 g of (NH4)2SO4, 0.5 g of KH2PO4, 0.5 g of K2HPO4, 0.5 g of MgSO4.7H2O, 1 mL of 0.06% (w/v) Fe2SO4.7H2O+0.042% (w/v) MnSO4.2H2O, 1 mL of 0.02% (w/v) biotin solution, 2 mL of 0.01% (w/v) thiamin solution, 2 g of yeast extract, 7 g of vitamin assay casamino acid, and 40 g of glucose were suspended in 1 L of distilled water) and was aerobically cultured with shaking at 33° C. for 13 hours.
The Corynebacterium glutamicum R grown in the above conditions was inoculated into 100 mL of A liquid medium in such a way that the initial bacterial cell concentration would be OD610=0.05, phenol was added at the same time in such a way that the final concentration would be 0, 0.16, 0.2, 0.24, or 0.32 mM, and aerobic culture was performed with shaking at 33° C. The growth of bacterial cells was determined by absorbance measurement at OD610.

The subject of another assay is Escherichia coli JM109. The note with it: aerobic culture, LB liquid medium, 37° C. As to the method:
as §1
Escherichia coli JM109 was applied to LB agar medium (1% polypeptone, 0.5% yeast extract, 0.5% NaCl and 1.5% agar) and was left stand in the dark at 37° C. for 15 hours.
An inoculation loop of the Escherichia coli JM109 grown on a plate as above was inoculated into a test tube containing 10 mL of LB liquid medium (1% polypeptone, 0.5% yeast extract, and 0.5% NaCl), and aerobic culture was performed with shaking at 37° C. for 13 hours.
The Escherichia coli JM109 grown in the above conditions was inoculated into 100 mL of LB liquid medium in such a way that the initial bacterial cell concentration would be OD610=0.05, phenol was added at the same time in such a way that the final concentration would be 0, 0.16, or 0.20 mM, and aerobic culture was performed with shaking at 37° C. The growth of bacterial cells was determined by absorbance measurement at OD610.

The subject of the next assay is Pseudomonas putida S12. The settings on record: aerobic culture, LB (+glucose) liquid medium, 30° C. As to the method:
as §1
(§2) Pseudomonas putida F1 and S12 were applied to LB agar medium (1% polypeptone, 0.5% yeast extract, 0.5% NaCl and 1.5% agar) and were left stand in the dark at 30° C. for 15 hours.
(§3) An inoculation loop of each of the Pseudomonas putida F1 and S12 grown on a plate as above was inoculated into a test tube containing 10 mL of LB (+glucose) liquid medium (1% polypeptone, 0.5% yeast extract, 0.5% NaCl and 0.4% glucose), and aerobic culture was performed with shaking at 30° C. for 13 hours.
(§4) The Pseudomonas putida F1 and S12 grown in the above conditions were each inoculated into 100 mL of LB (+glucose) liquid medium in such a way that the initial bacterial cell concentration would be OD610=0.05, phenol was added at the same time in such a way that the final concentration would be 0, 0.10, or 0.20 mM, and aerobic culture was performed with shaking at 30° C. The growth of bacterial cells was determined by absorbance measurement at OD610.

The next assay deals with Pseudomonas putida F1. The settings on record: aerobic culture, LB (+glucose) liquid medium, 30° C. The protocol: as §1, §2, §3, §4

Like-named read-outs stand apart in the source and are kept apart here.

With `Oc1ccccc1` [phenol], the “proliferation of Corynebacterium glutamicum (OD610)” value in assay [1] (0.16% phenol) was “hardly affected”; in assay [1] (0.20% phenol) it was “favorable growth”; in assay [1] (0.24% phenol), “able to proliferate”. Further, the “proliferation of Escherichia coli (OD610)” value in the assay with Escherichia coli JM109 (0.16% phenol) is “significantly affected”; in the assay with Escherichia coli JM109 (0.20% phenol) it was “completely inhibited”. Besides, the entries for the “proliferation of Pseudomonas putida S12 (OD610)” value with Pseudomonas putida S12 (0.10% phenol) and with Pseudomonas putida S12 (0.20% phenol) were “significantly affected” and “completely inhibited”, respectively. Also, the “proliferation of Pseudomonas putida F1 (OD610)” value is recorded as “significantly affected” in the assay with Pseudomonas putida F1 (0.10% phenol) and “completely inhibited” in the assay on Pseudomonas putida F1 (0.20% phenol).
